By IC50 is commonly meant the point on the concentration scale where inhibition reaches its midpoint. A higher IC50 goes with a need for much substance.

We go through 17 molecules from patent US20250270222A1, “AP2 ASSOCIATED KINASE 1 INHIBITORS AND USES THEREOF” (Satellos Bioscience Inc., priority 2023, published 2025).

Format in all cases: biochemical
Experiment [1] addresses GAK (amino acids Q25-N335) (Homo sapiens (Human), UniProt O14976). Nature of the experiment: GAK pSENs assay.
Experiment [2] concerns the target BIKE (amino acids S38-E345) (K320A, K321A) (Homo sapiens (Human), UniProt Q9NSY1, K320A/K321A). In words: BIKE pSENs assay. How it is done:
The recombinant proteins were independently expressed in Esherichia coli BL21(DE3) cells cultured in Luria-Bertani (LB) medium until OD600 reached 0.6-0.8, then cooled to 15° C., and supplemented with 0.5 mM isopropyl 1-thio-D-galactopyranoside (IPTG) induce protein expression 16 h. Cells were harvested and resuspended in lysis buffer (50 mM HEPES pH 7.5, 500 mM NaCl, 5 mM imidazole, 5% glycerol, 0.5 mM Tris (2-carboxyethyl) phosphine (TCEP), cOmplete Protease Inhibitor Tablet (Roche)) and lysed by microfluidics high pressure homogenizer (UH-06, Union-Biotech). Proteins were purified using Ni-Affinity chromatography (His FF column, Bestchrom) and eluted stepwise in binding buffer with 20-300 mM imidazole. Removal of the hexahistidine tag was performed at 4° C. overnight using recombinant TEV protease and reacted with BirA to obtain the corresponding biotinylated-AAK1. BIKE or GAK proteins. Further separated in the reverse Strep column (Strep-Tactin® XT, IBA). The Biotin elution sample was collected containing untagged biotinylated protein was then purified by Ion-exchange chromatography (Mono Q 10/100 GL, Cytiva) and Size-exclusion chromatography (HiLoad 16/600 Superdex 200 pg, Cytiva). The pure protein was stored in a storage buffer 50 mM HEPES (pH 7.5), 300 mM NaCl, 5% glycerol at −80° C. Protein were characterized by SDS-PAGE. LC-MS and aSEC.
BIKE protein was dissolved at 20 nM in 1× enzyme solution (50 mM HEPES pH7.5, 10 mM MgCl2, 1 mM DTT, 1% glycerol, 0.5 mM EGTA, 0.01% Briji35, 0.02% BSA) and 12.5 ul was incubated with 250 nl DMSO or 250 nl compound in DMSO at 25° C. for 15 min. The reaction was started by addition of 12.5 ul of 30 uM AQT0759 (Assayquant, CSKS-AQT0759B) and 40 uM ATP which were diluted in 1× substrate dilution buffer (50 mM HEPES pH7.5, 10 mM MgCl2. 1 mM DTT, 1% glycerol, 0.5 mM EGTA, 0.01% Briji35).

In experiment [3] the target is AAK1 (amino acids T27-A365) (Homo sapiens (Human), UniProt Q2M2I8). In words: AAK1 pSENs assay. To be noted: ratio of AAK1 pSENs activity to GAK pSENs activity. In a few lines:
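Untagged, biotinylated E. coli-expressed AAK1 at 20 nM preincubated with compound 15 min at 25° C in HEPES pH 7.5 buffer with 10 mM MgCl2 and 1 mM DTT. Reaction started with AQT0759 and ATP, added as 30 uM and 70 uM solutions in equal volume.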

Sequence of GAK (amino acids Q25-N335) (O14976 25-335): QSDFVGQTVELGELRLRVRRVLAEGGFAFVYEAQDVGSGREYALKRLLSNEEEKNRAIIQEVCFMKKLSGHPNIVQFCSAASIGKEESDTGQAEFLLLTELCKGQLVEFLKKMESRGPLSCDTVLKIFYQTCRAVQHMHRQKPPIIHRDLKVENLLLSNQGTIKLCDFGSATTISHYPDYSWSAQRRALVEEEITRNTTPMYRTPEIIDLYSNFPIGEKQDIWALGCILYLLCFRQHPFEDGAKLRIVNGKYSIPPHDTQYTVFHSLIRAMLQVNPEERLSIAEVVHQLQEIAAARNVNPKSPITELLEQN
Sequence of BIKE (amino acids S38-E345) (K320A, K321A) (Q9NSY1 38-345 K320A/K321A): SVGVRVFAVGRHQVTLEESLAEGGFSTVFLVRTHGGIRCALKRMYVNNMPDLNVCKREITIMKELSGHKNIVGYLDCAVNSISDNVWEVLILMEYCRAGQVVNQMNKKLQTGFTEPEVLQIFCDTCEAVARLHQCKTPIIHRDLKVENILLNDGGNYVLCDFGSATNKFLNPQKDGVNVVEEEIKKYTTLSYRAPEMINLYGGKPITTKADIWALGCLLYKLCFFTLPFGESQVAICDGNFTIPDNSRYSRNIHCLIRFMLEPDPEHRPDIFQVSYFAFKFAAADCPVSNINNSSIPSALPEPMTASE
Sequence of AAK1 (amino acids T27-A365) (Q2M2I8 27-365): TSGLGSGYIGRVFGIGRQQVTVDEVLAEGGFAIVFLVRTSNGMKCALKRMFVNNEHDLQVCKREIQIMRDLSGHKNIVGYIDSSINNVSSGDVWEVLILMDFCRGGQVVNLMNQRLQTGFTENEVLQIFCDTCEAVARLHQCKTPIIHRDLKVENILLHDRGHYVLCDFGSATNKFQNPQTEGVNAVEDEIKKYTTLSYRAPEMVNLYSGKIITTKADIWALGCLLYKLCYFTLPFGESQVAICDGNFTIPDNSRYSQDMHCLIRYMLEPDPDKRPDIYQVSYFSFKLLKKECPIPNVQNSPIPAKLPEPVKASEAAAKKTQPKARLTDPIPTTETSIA

Consider `CC1(OC(=O)N2CCN(c3ccn4ncc(-c5cccnc5OCC5CCC5)c4n3)CC2)COC1` [Compound I-19, 3-Methyloxetan-3-yl 4-(3-(2-(cyclobutylmethoxy)pyridin-3-yl)pyrazolo[1,5-a]pyrimidin-5-yl)piperazine-1-carboxylate], for which the IC50 in experiment [1] and in experiment [2] was > 1500 nM throughout. Besides, the “AAK1:GAK pSENs Selectivity” value in experiment [3] is recorded as “D (D: 0.16-1.00)”.

In the case of `O=C1NCC[C@H]1OC(=O)N1CCN(c2ccn3ncc(-c4cccnc4OC4CC4)c3n2)CC1` [Compound I-23, [(3R)-2-oxopyrrolidin-3-yl]-4-[3-[2-(cyclopropoxy)-3-pyridyl]pyrazolo[1,5-a]pyrimidin-5-yl]piperazine-1-carboxylate], the IC50 in experiment [1] and in experiment [2] was > 1500 nM in each case. For the same molecule, the “AAK1:GAK pSENs Selectivity” value in experiment [3] is “B (B: 0.016-0.075)”.

As to `O=C1NCC[C@@H]1OC(=O)N1CCN(c2ccn3ncc(-c4cccnc4OC4CC4)c3n2)CC1` [Compound I-24, [(3S)-2-Oxopyrrolidin-3-yl]-4-[3-[2-(cyclopropoxy)-3-pyridyl]pyrazolo[1,5-a]pyrimidin-5-yl]piperazine-1-carboxylate], the IC50 in experiment [1] and in experiment [2] was > 1500 nM in each case. Further, the “AAK1:GAK pSENs Selectivity” value in experiment [3] is reported as “B (B: 0.016-0.075)”.

On to `O=C(O[C@@H]1CC(=O)N(C2CCNCC2)C1)N1CCN(c2ccn3ncc(-c4cccnc4OC4CC4)c3n2)CC1` [Compound I-33, (R)-5-Oxo-1-(piperidin-4-yl)pyrrolidin-3-yl 4-(3-(2-cyclopropoxypyridin-3-yl)pyrazolo[1,5-a]pyrimidin-5-yl)piperazine-1-carboxylate], for which the IC50 in experiment [1] and in experiment [2] was > 1500 nM in each case. Also, in experiment [3], the “AAK1:GAK pSENs Selectivity” value is “D (D: 0.16-1.00)”.

As for `C[C@H]1CN(c2ccn3ncc(-c4cccnc4OC4CC4)c3n2)CCN1C(=O)O[C@@H]1CNC(=O)C1` [Compound I-40, [(3S)-5-Oxopyrrolidin-3-yl](2S)-4-[3-[2-(cyclopropoxy)-3-pyridyl]pyrazolo[1,5-a]pyrimidin-5-yl]-2-methyl-piperazine-1-carboxylate], the IC50 in experiment [1] and in experiment [2] was > 1500 nM in each case. The “AAK1:GAK pSENs Selectivity” value in experiment [3] is recorded as “B (B: 0.016-0.075)”.

Take `N#C[C@@H]1CN(c2ccn3ncc(-c4cccnc4OC4CC4)c3n2)CCN1C(=O)O[C@@H]1CNC(=O)C1` [Compound I-41, (S)-5-Oxopyrrolidin-3-yl (S)-2-cyano-4-(3-(2-cyclopropoxypyridin-3-yl)pyrazolo[1,5-a]pyrimidin-5-yl)piperazine-1-carboxylate]: the IC50 in experiment [1] and in experiment [2] was > 1500 nM each time. Also, the “AAK1:GAK pSENs Selectivity” value in experiment [3] is reported as “B (B: 0.016-0.075)”.

Turning to `O=C1C[C@H](OC(=O)N2CCN(c3ccn4ncc(-c5cccnc5OC5CC5)c4n3)C[C@H]2C(=O)O)CN1` [Compound I-41-4C, (S)-4-(3-(2-Cyclopropoxypyridin-3-yl)pyrazolo[1,5-a]pyrimidin-5-yl)-1-((((S)-5-oxopyrrolidin-3-yl)oxy)carbonyl)piperazine-2-carboxylic acid], the IC50 in experiment [1] and in experiment [2] was > 1500 nM in each case. Further, the “AAK1:GAK pSENs Selectivity” value in experiment [3] is “D (D: 0.16-1.00)”.

`COC(=O)[C@@H]1CN(c2ccn3ncc(-c4cccnc4OC4CC4)c3n2)CCN1C(=O)O[C@@H]1CNC(=O)C1` [Compound I-41-5, 2-Methyl 1-((S)-5-oxopyrrolidin-3-yl) (S)-4-(3-(2-cyclopropoxypyridin-3-yl)pyrazolo[1,5-a]pyrimidin-5-yl)piperazine-1,2-dicarboxylate]: the IC50 in experiment [1] and in experiment [2] was > 1500 nM throughout. Further, in experiment [3], the “AAK1:GAK pSENs Selectivity” value is “C (C: 0.076-0.15)”.

For `NC(=O)[C@@H]1CN(c2ccn3ncc(-c4cccnc4OC4CC4)c3n2)CCN1C(=O)O[C@@H]1CNC(=O)C1` [Compound I-41-6, (S)-5-Oxopyrrolidin-3-yl-(S)-2-carbamoyl-4-(3-(2-cyclopropoxypyridin-3-yl)pyrazolo[1,5-a]pyrimidin-5-yl)piperazine-1-carboxylate], the IC50 in experiment [1] and in experiment [2] was > 1500 nM throughout. Besides, the “AAK1:GAK pSENs Selectivity” value in experiment [3] was “B (B: 0.016-0.075)”.

In the case of `CN1CC(Oc2ncccc2-c2cnn3ccc(N4CCN(C(=O)O[C@@H]5CNC(=O)C5)CC4)nc23)C1` [Compound I-44, (S)-5-Oxopyrrolidin-3-yl 4-(3-(2-((1-methylazetidin-3-yl)oxy)pyridin-3-yl)pyrazolo[1,5-a]pyrimidin-5-yl)piperazine-1-carboxylate], the IC50 in experiment [1] and in experiment [2] was > 1500 nM in each case. In addition, the “AAK1:GAK pSENs Selectivity” value in experiment [3] was “D (D: 0.16-1.00)”.

Turning to `CC(C)Nc1ncccc1-c1cnn2ccc(N3CCN(C(=O)O[C@@H]4CNC(=O)C4)CC3)nc12` [Compound I-47, [(3S)-5-oxopyrrolidin-3-yl]4-[3-[2-(isopropylamino)-3-pyridyl]pyrazolo[1,5-a]pyrimidin-5-yl]piperazine-1-carboxylate], the IC50 in experiment [1] and in experiment [2] was > 1500 nM in each case. In addition, the “AAK1:GAK pSENs Selectivity” value in experiment [3] was “E (E: >1.00)”.

For `CC(C)(C)OC(=O)N1CC(Nc2ncccc2-c2cnn3ccc(N4CCN(C(=O)O[C@@H]5CNC(=O)C5)CC4)nc23)C1` [Compound I-48], the IC50 in experiment [1] and in experiment [2] was > 1500 nM in each case. In experiment [3], the “AAK1:GAK pSENs Selectivity” value is listed as “D (D: 0.16-1.00)”.

Turning to `CN(C)CCN1CC[C@@](C)(OC(=O)N2CCN(c3ccn4ncc(-c5cccnc5OC5CC5)c4n3)CC2)C1` [Compound I-53, (R)-1-(2-(dimethylamino)ethyl)-3-(methylpyrrolidin-3-yl)-4-(3-(2-cyclopropoxypyridin-3-yl)pyrazolo[1,5-a]pyrimidin-5-yl)piperazine-1-carboxylate], the IC50 is > 1500 nM in experiment [1] and 501 to 1500 nM in experiment [2]. Moreover, the “AAK1:GAK pSENs Selectivity” value in experiment [3] is given as “A (A: ≤0.015)”.

With `O=C1C[C@H](OC(=O)N[C@@H]2CCN(c3ccn4ncc(-c5cccnc5OC5CC5)c4n3)C2)CN1` [Compound I-54, [(3S)-5-oxopyrrolidin-3-yl]N-[(3R)-1-[3-[2-(cyclopropoxy)-3-pyridyl]pyrazolo[1,5-a]pyrimidin-5-yl]pyrrolidin-3-yl]carbamate], the IC50 in experiment [1] and in experiment [2] was > 1500 nM throughout. In addition, the “AAK1:GAK pSENs Selectivity” value in experiment [3] was “C (C: 0.076-0.15)”.

Consider `O=C1C[C@H](OC(=O)N[C@H]2CCN(c3ccn4ncc(-c5cccnc5OC5CC5)c4n3)C2)CN1` [Compound I-55, (S)-5-oxopyrrolidin-3-yl ((S)-1-(3-(2-cyclopropoxypyridin-3-yl)pyrazolo[1,5-a]pyrimidin-5-yl)pyrrolidin-3-yl)carbamate], for which the IC50 in experiment [1] and in experiment [2] was > 1500 nM in each case. Also, the “AAK1:GAK pSENs Selectivity” value in experiment [3] is “D (D: 0.16-1.00)”.

Regarding `C[C@@]1(OC(=O)N[C@@H]2CCN(c3ccn4ncc(-c5cccnc5OC5CC5)c4n3)C2)CCNC1` [Compound I-56, (R)-3-methylpyrrolidin-3-yl ((R)-1-(3-(2-cyclopropoxypyridin-3-yl)pyrazolo[1,5-a]pyrimidin-5-yl)pyrrolidin-3-yl)carbamate], the IC50 in experiment [1] and in experiment [2] was > 1500 nM each time. Moreover, the “AAK1:GAK pSENs Selectivity” value in experiment [3] is recorded as “C (C: 0.076-0.15)”.

On to `O=C(O[C@H]1CO[C@H]2OCC[C@H]21)N1CCN(c2ccn3ncc(-c4ccncn4)c3n2)CC1` [Compound I-67], for which the IC50 in experiment [1] and in experiment [2] was > 1500 nM each time. Also, the “AAK1:GAK pSENs Selectivity” value in experiment [3] was “C (C: 0.076-0.15)”.
